Read-outs that look alike come from different tables or passages of the source.
Tests used:
HD human lymphoblasts = settings: 24 h pre-treatment
Procedure: The lymphoblasts were passaged 1:3 every five to six days. For conducting experiments, the lymphoblasts were collected and centrifuged at 145×g for 5 min. The cell pellet was resuspended in fresh growth medium. Lymphoblasts between passage number 5 and 20 were used in each experiment.
Mitochondrial membrane potential (Δψm) was assessed in cortical and striatal neurons using the positively changed fluorescent probe TMRM (tetramethylrhodamine methyl ester) (Thermo Fisher Sci., catalog no: T668) and in cortical/striatal co-cultures and lymphoblasts using an equivalent probe, TMRE (tetramethylrhodamine ethyl ester) (Abcam, catalog no. ab113852).
TMRE assay: Primary neurons and lymphoblasts in suspension were cultured in 6-well plates.

HD lymphoblasts = settings: 5 μM, H2O2-challenged conditions, p=0.0001
Procedure: H2O2 (9.8 M stock) was dissolved in cell culture medium prior to experimentation. Primary neurons and lymphoblasts cultured on PDL-coated plates were treated with H2O2 (0-1 mM) for up to 6 hours. Oxidative stress was measured using the CellROX red reagent (Life Technologies, catalog no. C10422). Cells were treated with 5 μM CellRox red in complete medium, then incubated for 30 minutes. The cells were then washed with PBS and imaged on a Zeiss Axiovert inverted microscope (Zeiss, Jena, Germany) using a 10× objective. Exposure settings were maintained for all samples. Eight random fields were sampled, and the fluorescence intensity was measured using ImageJ software and normalized to the DAPI signal.

[1] = system: mitochondrial complexes II, III and IV; settings: 30 mg/kg/day oral gavage 45 days
Procedure: 1.5-month-old WT and hemizygous YAC128 mice (males and females in equal proportion) were divided into four groups. […] Mice were divided 4 animals per cage enriched in corn-husk nesting material and paper rolls, each cage representing one individual experiment, for a total of 9 animals per group. Pridopidine was dissolved in deionized sterile water. Animals were weighed every week and the volume of treatment adjusted accordingly. Mice were behaviorally tested in rotarod immediately before commencing treatment and on the day before finishing treatment. Tests were conducted blindly at a set time during the day. Mice were sacrificed 24 h after administration of the final pridopidine dose, and mitochondria isolated from the striatum.
The final homogenate was then centrifuged at 1,100×g for 2 min, at 4° C. […] The mitochondrial fraction was pelleted by centrifugation at 18,500×g for 10 min at 4° C. The pellet was then resuspended in 1 mL of mitochondria washing buffer (MWB: in mM, 250 sucrose, 5 HEPES-KOH, 0.1 EGTA, pH 7.2) and centrifuged at 10,000×g for 5 min at 4° C. Mitochondrial pellet was again resuspended in a small volume of ice-cold MWB, to create a concentrated mitochondria solution, and kept on ice for further analysis for a maximum of 2 hours. Protein content of isolated mitochondria was quantified by Bio-Rad assay (Bio-Rad, catalog no. 5000006).
After centrifugation, the volume was adjusted to 450 μL and the Seahorse plate was equilibrated in a humidified C02-free incubator at 37° C. for 10-12 min.

[2] = system: WT and YAC128 cortical/striatal co-cultures; settings: 24 h
Procedure: Oxygen consumption rate (OCR) in WT and hemizygous YAC128 cortical/striatal co-cultures and NSCs was measured using Seahorse XFe-24/96 flux analyzers (Seahorse Bioscience, Billerica, MA, USA) following the manufacturer's instructions. […] Pridopidine (0.1, 1 and/or 5 μM) was added, when indicated in the graphs, 24 h before the experiment. The sensor cartridge plate was incubated with immersed sensors in a non-CO2 incubator at 37° C. for ~16 h (overnight). […] The cell medium was aspirated gently to avoid disturbing cell monolayers. […] Accordingly, mitochondrial basal respiration, maximal respiration and ATP production was automatically calculated and recorded by the Seahorse software. Data was normalized for protein levels.

[3] = system: eIF2α phosphorylation in HEK 293 cells; settings: for concentration of maximal effect on reducing eIF2α phosphorylation: cells expressing Htt96Q
Procedure: Transfections of HEK 293 cells were carried out according to the calcium phosphate method. STHdh^Q7/7 cells are a murine striatal cell line with a stable knock-in of the full-length wild type (WT) human Htt containing a polyglutamine stretch of 7 glutamines (Trettel et al. 2000). […] No cell line used is listed as a commonly misidentified cell line. Cell lines were not authenticated. To reduce any risk of cross-contamination they were grown for a limited number of passages. Transient transfections of NIH 3T3 and STHdh^Q7/7 cells were performed using an MP-100 Microporator (Digital Bio) or ViaFect™ Transfection Reagent (Cat.No. E4981) (Promega), according to the manufacturer's protocols.
Cells were lysed in PBS containing 1% Triton X-100, 0.5% sodium deoxycholate with protease inhibitors and centrifuged to pellet insoluble aggregates, debris and nuclei. Phosphatase inhibitor cocktail 2 and 3 and 10 mM […] phosphate were added to the lysis buffer to inhibit phosphatases for detection of phosphorylated proteins. Supernatants were separated from pellets and incubated in loading buffer for 5 min at 100° C., pellets were incubated for 10 min at 100° C. After SDS-PAGE and transfer to nitrocellulose membrane, blocking was done in 5% low-fat milk and 0.1% Tween-20 in PBS for 1 h. Incubation with the primary antibody was overnight at 4° C. and after three washes in 0.1% Tween-20 in PBS, incubation with the appropriate secondary antibody was for 1 h at room temperature. After washing, enhanced chemiluminescence assay was performed and the membrane was exposed and quantified in a Bio-Rad ChemiDocXRS Imaging System (Bio-Rad, Hercules, CA).

[4] = system: YAC128 cortical and striatal neurons; settings: 24 h
Procedure: After basal reading for 10 minutes, neurons were stimulated with antimycin A (2 μM).

CCCN1CCC(c2cccc(S(C)(=O)=O)c2)CC1 [Pridopidine, 4-[3-(methylsulfonyl)phenyl]-1-propyl-piperidine] was tested, and the “MMP (TMRE signal) after H2O2” value (HD human lymphoblasts; HD human lymphoblasts, 5 μM, then H2O2 6 h) was “significant rescue effect”, the “restoration of membrane potential” value (HD human lymphoblasts; human lymphoblasts, 10 μM, then 0.1 mM H2O2 6 h, p=0.1389) was “less efficacious and shows less restoration of membrane potential” and the “concentration of maximal effect on MMP (bell-shaped dose-response)” value (HD human lymphoblasts; human lymphoblasts, then 0.1 mM H2O2 6 h) was 5 µM. The “decrease of ROS levels (CellRox)” value (HD lymphoblasts) was 57%, the “activity of mitochondrial complex IV (OCR)” value ([1]; YAC128 mice) was “shows a similar decreasing trend” and the “activity of mitochondrial complex III” value ([1]; YAC128 mice, p=0.0084) was “normalizes the activity of mitochondrial complexes H and III”. The “activity of mitochondrial complex II” value ([1]; YAC128 mice, p=0.0306) was “normalizes the activity of mitochondrial complexes H and III”, the mitochondrial complex activities ([1]; wild-type mice) was “does not affect mitochondrial complex activities” and the maximal respiration ([2]; HD Y128 corticostriatal neurons, 1 μM, p=0.0061) was “rescues maximal”. For the same compound, the maximal respiration ([2]; HD Y128 corticostriatal neurons, 5 μM, p=0.002) was “rescues maximal”, the ATP production ([2]; HD Y128 corticostriatal neurons, 5 μM, p=0.0358) was “rescues” and the basal respiration ([2]; HD Y128 corticostriatal neurons, 1 and 5 μM) was “non-significant trend towards increasing basal respiration”. For the same compound, the maximal respiration ([2]; WT cells, 1 and 5 μM) was “increases maximal respiration in both WT and Y128 cells”, the mitochondrial basal respiration ([2]; WT neurons, 1 μM, p=0.0058) was “enhances mitochondrial basal respiration” and the mitochondrial basal respiration ([2]; WT neurons, 5 μM, p=0.0016) was “enhances mitochondrial basal respiration”. For the same compound, the ATP production ([2]; WT neurons, 5 μM, p=0.02) was “enhances”, the “reduction of eIF2α-phosphorylation levels compared to the untreated control” value ([3]; HEK293 cells expressing Htt96Q, 24 h, dose-dependent 0 to 3 μM) was 3.6 fold and the “phosphorylation of eIF2α” value ([3]; Htt96Q-expressing cells, high doses of 30 and 150 μM) was “no effect”. The “concentration of maximal effect on reducing eIF2α phosphorylation” value ([3]; after 8 hours) was 3 µM, the “concentration of maximal effect on reducing eIF2α phosphorylation” value ([3]; after 24 hours) was 3 µM and the eIF2α phosphorylation ([3]; cells expressing WT Htt20Q) was “unaffected by pridopidine treatment”. For the same compound, the “TG-induced ER stress as measured by eIF2α-P” value ([3]; cells expressing myc-Htt20Q, 2 μg/ml thapsigargin) was “down to the levels of untreated cells”, the “mito-H2O2 levels prompted by Ant A” value ([4]; YAC128 cortical neurons, 1 μM, p<0.0001) was “reverts the increased levels of mito-H2O2 prompted by Ant A” and the “mito-H2O2 levels prompted by Ant A” value ([4]; YAC128 striatal neurons, 0.1 μM, p=0.0005) was “reverts the increased levels of mito-H2O2 prompted by Ant A”. For the same compound, the “mito-H2O2 levels prompted by Ant A” value ([4]; YAC128 striatal neurons, 1 μM, p<0.0001) was “reverts the increased levels of mito-H2O2 prompted by Ant A”.
